According to the supplement of paper PMC11208160:

experiment: recombinant barcode read abundance after kanamycin selection (control-corrected) (log10(CPM+1)); higher = more efficient recombination; sequences stand for … in AGTGCAGAGAAAATCGGCCAGTTTTCTCTGCCTGCAGTCCGCATGCCGT…AGATTTATGCAGCGGACTGCCTTTCTCCCAAAGTGATAAACCGGACAGTATCATGGACCGGTTTTCCCGGTAATCCGTATTTGCAAGGTTGGTTTCACT; site = the 11-nt target
Outline: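 Pooled E. coli screen pairing targets with IS621 bridge RNA target-binding loops. Each oligo (promoter, target, barcode, J23119-driven first 104 bridge RNA bases) was Gibson-cloned into a vector with the remaining 73 bp and T7-inducible recombinase, then co-electroporated with a donor plasmid. Two replicates each were plated on chloramphenicol/ampicillin LB agar (control) or chloramphenicol/ampicillin/kanamycin with 0.1 mM IPTG. Recombination efficiency is recombinant-junction barcode counts as CPM, averaged, control-corrected, reported as log10(CPM+1).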
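Also: IS621 recombinase and bridge RNA in Escherichia coli cells.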

Sequence | recombinant barcode read abundance (log10)
TGCCTGCCTTGGGTTCTAACCTGTTGCAG (site ATAGAATCTGA) | 0.245
TATGTGTCTTGGGTTCTAACCTGTTGCCT (site TACGTGTCTAG) | 0.509
TTGGACACTTGGGTTCTAACCTGTTGCCT (site TTGGGCACTAG) | 0.327
GACATCGCTTGGGTTCTAACCTGTTGCCT (site GACATCGCTAG) | 1.64
ACTGTATCTTGGGTTCTAACCTGTTGCCT (site ACTGTATCTAG) | 1.13
ATACAATCTTGGGTTCTAACCTGTTGCCT (site TTACAATCTAG) | 0.202
AGGCAGACTTGGGTTCTAACCTGTTGCCA (site AGGGAGACTTG) | 0.216
AGTTCGACTTGGGTTCTAACCTGTTGCCT (site AATTCGACTAG) | 0.0143
CCGCCAGCTTGGGTTCTAACCTGTTGCCT (site CCGCCTGCTAG) | 0.186
TCTTTACCTTGGGTTCTAACCTGTTGCCT (site GCTTTACCTAG) | 0.043
TCTTTACCTTGGGTTCTAACCTGTTGCCT (site ACTTTACCTAG) | 0.146
CTGTGAGCTTGGGTTCTAACCTGTTGCAG (site AACAATACTAG) | 0.107
ACTTGCCCTTGGGTTCTAACCTGTTGCCT (site ATTTGCCCTAG) | 0.57
TCACAGCCTTGGGTTCTAACCTGTTGCTG (site TCACAGCCTCA) | 0.476
CAAACCTCTTGGGTTCTAACCTGTTGCAC (site CAAACCTCTGT) | 1.97
GTGTACCCTTGGGTTCTAACCTGTTGCGG (site GTGTACCCTAC) | 1.94
GTAAATGCTTGGGTTCTAACCTGTTGCCT (site GTAACTGCTAG) | 0.0397
GATCGATCTTGGGTTCTAACCTGTTGCTT (site GATCGATCTAT) | 0.0953
GATAGGCCTTGGGTTCTAACCTGTTGCCT (site GATAGGCCTAG) | 0.101
GTACGAGCTTGGGTTCTAACCTGTTGCCG (site GTGTGAGCTCG) | 0.38
GGGTTTGCTTGGGTTCTAACCTGTTGCCT (site GAGTTTGCTAG) | 0
GGCGGCCCTTGGGTTCTAACCTGTTGCGG (site GGCGGCCCTCC) | 2.31

Sequence | recombinant barcode read abundance (log10)
GAACGCTCTTGGGTTCTAACCTGTTGCCA (site AGGTCTACTAA) | 0.0972
CTTGGACCTTGGGTTCTAACCTGTTGCCT (site CTTGGATCTAG) | 0.113
GGACATTCTTGGGTTCTAACCTGTTGCAT (site GTCCATTCTAT) | 0.0875
ATAAAACCTTGGGTTCTAACCTGTTGCCT (site ATAAAACCTAG) | 1.23
CTATCCTCTTGGGTTCTAACCTGTTGCAT (site CTAACCTCTAT) | 0.233
CAGTACGCTTGGGTTCTAACCTGTTGCCT (site CAGTACGCTAG) | 0.652
GTCGTCCCTTGGGTTCTAACCTGTTGCCT (site GTCGTCGCTAG) | 0.0602
GCCCGGGCTTGGGTTCTAACCTGTTGCCG (site GCCCGGGCTCG) | 0.309
TTCTACCCTTGGGTTCTAACCTGTTGCCT (site TGCTACCCTAG) | 0.0636
AAGATTCCTTGGGTTCTAACCTGTTGCCT (site ATGATTCCTAG) | 0.217
AAGTCGACTTGGGTTCTAACCTGTTGCCT (site AAGTCGACTAG) | 0.76
TGAATTACTTGGGTTCTAACCTGTTGCCT (site TGAATTACTAG) | 0.102
TCAGGAGCTTGGGTTCTAACCTGTTGCAG (site TCAGGAGCTCC) | 0.0921
CTAGGCTCTTGGGTTCTAACCTGTTGCGG (site CTACGCTCTTC) | 0.095
ACACAGACTTGGGTTCTAACCTGTTGCGC (site ACAGAGACTGC) | 0.114
AGGGCTTCTTGGGTTCTAACCTGTTGCTA (site AGGGCTTCTTA) | 1.87
TGCCATCCTTGGGTTCTAACCTGTTGCAT (site AGCCATCCTAT) | 0.111
TTAACTACTTGGGTTCTAACCTGTTGCTC (site TTAACTACTGA) | 0.195
CAGATCCCTTGGGTTCTAACCTGTTGCCT (site CAGATCCCTAG) | 1.91
TTCTGTTCTTGGGTTCTAACCTGTTGCCT (site TTCTGTTCTAG) | 0.196
ATCCTAGCTTGGGTTCTAACCTGTTGCCG (site ATCCTAGCTCG) | 1.58
CAGGAGACTTGGGTTCTAACCTGTTGCCT (site CAGGAGACTAG) | 1.63

Sequence | recombinant barcode read abundance (log10)
TAGCATGCTTGGGTTCTAACCTGTTGCAT (site TAGCATGCTCT) | 0.204
ACAGTGTCTTGGGTTCTAACCTGTTGCGG (site ACAGTGTCTCC) | 2.77
TCTAAGGCTTGGGTTCTAACCTGTTGCCT (site TCTAAGGCTAG) | 0.043
TATTACCCTTGGGTTCTAACCTGTTGCCT (site TATTATCCTAG) | 0.12
CCTCAGGCTTGGGTTCTAACCTGTTGCCG (site CCTCAGGCTCG) | 0.229
CTACCCTCTTGGGTTCTAACCTGTTGCCT (site CTACCCTCTAG) | 2.4
TCTGATTCTTGGGTTCTAACCTGTTGCCG (site TCTTATTCTAG) | 0.133
ATGCTGTCTTGGGTTCTAACCTGTTGCTA (site ATGCTGTCTTA) | 1.52
TAGCTCCCTTGGGTTCTAACCTGTTGCCC (site TAGCTCCCTAG) | 0.279
ATTCGAGCTTGGGTTCTAACCTGTTGCAT (site ATTCGAGCTAT) | 1.18
AGGTGCTCTTGGGTTCTAACCTGTTGCCT (site ACGTGCTCTAG) | 0.179
TAGTGTCCTTGGGTTCTAACCTGTTGCAT (site TAGTGTTCTAT) | 0.155
CACGCGTCTTGGGTTCTAACCTGTTGCTG (site CACGCTTCTTA) | 0.0288
CCTTGTTCTTGGGTTCTAACCTGTTGCCT (site TCTTGTTCTAG) | 0.0322
ACTAGTCCTTGGGTTCTAACCTGTTGCGT (site ACTAGTCCTAA) | 0.0427
AGGCAGACTTGGGTTCTAACCTGTTGCCA (site AGGCAGACTTG) | 0.699
ATCTATACTTGGGTTCTAACCTGTTGCCT (site ATCTATACTAG) | 0.821
TATTTGCCTTGGGTTCTAACCTGTTGCTG (site TATTTGCCTCA) | 0.0916
CGCCCTTCTTGGGTTCTAACCTGTTGCCT (site TAAGGGACTTA) | 0.0823
CCAGGTACTTGGGTTCTAACCTGTTGCCT (site ACAGGTACTAG) | 0.272
CCTCTGGCTTGGGTTCTAACCTGTTGCCT (site CCGCTGTCTAG) | 0.808
TCTTAGACTTGGGTTCTAACCTGTTGCCT (site TCTTAGACTCG) | 0.0132

Sequence | recombinant barcode read abundance (log10)
CTTCGCCCTTGGGTTCTAACCTGTTGCTT (site ACAGTGGCTCC) | 0.0481
TAGTTAGCTTGGGTTCTAACCTGTTGCCG (site TAGTTAGCTCG) | 0.666
CGCCGTACTTGGGTTCTAACCTGTTGCCT (site CGCCGTACTAG) | 0.405
CCAGGTCCTTGGGTTCTAACCTGTTGCAT (site CCAGGTCCTAT) | 2.25
ACTCTACCTTGGGTTCTAACCTGTTGCTA (site ACCCTCCCTTA) | 0.0533
CAAACACCTTGGGTTCTAACCTGTTGCTT (site CAAGCACCTAA) | 0.0323
CGTACCTCTTGGGTTCTAACCTGTTGCTT (site CGTACCTCTCA) | 0.125
CTTTAATCTTGGGTTCTAACCTGTTGCCT (site CTTAAATCTAG) | 0.349
TCGGATACTTGGGTTCTAACCTGTTGCCT (site TCGGATACTAG) | 1.54
TCGGATACTTGGGTTCTAACCTGTTGCAT (site TCGGATACTAA) | 0.31
GTAAGTACTTGGGTTCTAACCTGTTGCTT (site GTAAGTACTAA) | 0.221
GGGGTGTCTTGGGTTCTAACCTGTTGCCG (site ATTTAACCTAC) | 0.0514
CGTCACACTTGGGTTCTAACCTGTTGCCT (site CGACACACTAG) | 0.013
TCCAACCCTTGGGTTCTAACCTGTTGCAG (site TCCAACCCTCT) | 1.69
GTGCTTACTTGGGTTCTAACCTGTTGCCT (site GCGCTTACTAG) | 0.0397
CCGACTCCTTGGGTTCTAACCTGTTGCCT (site CCGACTCCTAG) | 0.13
TGGGTCCCTTGGGTTCTAACCTGTTGCGA (site AAATGTACTAG) | 0.252
AAGGTCGCTTGGGTTCTAACCTGTTGCCT (site AAGGTCGCTAG) | 2.45
TTAAGACCTTGGGTTCTAACCTGTTGCCT (site TTAAGCCCTAG) | 0.336
CTACTTCCTTGGGTTCTAACCTGTTGCGT (site CTACCTCCTAC) | 0.215
